The structures appear in SMILES notation. Entries after “also recorded” stand apart in the source; their conditions may differ.

One assay has as its system male CD-1 mice. Nature of the assay: murine Forced Swim Test (FST), a mouse model of depression. The following applies: intraperitoneal; for effect on length of time spent immobile / depression, in words: doses per Table 1, ANOVA followed by T-test, versus vehicle; for length of time the mice spent immobile (average time immobile): one hour after dosing, immobility within the last 4 minutes of 6 minutes, mg/kg per Table 1: desipramine 10, entacapone 30, fluoxetine 18, venlafaxine 10, amitriptyline 10, droxidopa 400, carbidopa 20. It counts as in vivo. As to the method:
The effect of droxidopa, alone or in combination with other drugs, in the treatment of depression was evaluated using the murine Forced Swim Test (FST), a mouse model of depression commonly used to evaluate antidepressive drugs. Depression (i.e., “learned helplessness” as evaluated by the FST model) was measured using the method of Porsolt et al., Arch. Int. Pharmacodyn. (1977), 229: 327-336. Briefly, male CD-1 mice weighing 22 g (±2 g) were fasted overnight prior to testing. The mice were randomized into 11 groups of 10 mice each. Mice in each group were treated with the vehicle alone, a drug, or a drug composition as outlined in Table 1 and returned to their respective groups.
In Table 1, the vehicle—2% TWEEN® 80 (i.e., polysorbate 80)—was included in all test compositions. One hour after dosing, the test mice were placed in a 1 liter volume glass beaker (height: 14.5 cm, diameter: 10.5 cm) containing water 6 cm in height at room temperature (22 to 24° C.) for 6 minutes. The duration of animal immobility within the last 4 minutes was then recorded. A mouse was judged to be immobile when it ceased struggling and remained floating in the water making only those movements necessary to keep its head above water. Data were analyzed by ANOVA for significant differences in group means, followed by T-test to distinguish statistically significant groups as appropriate.

The next assay concerns the target T1, MAO-A (Homo sapiens, UniProt P21397).
T1 sequence (P21397 1-527): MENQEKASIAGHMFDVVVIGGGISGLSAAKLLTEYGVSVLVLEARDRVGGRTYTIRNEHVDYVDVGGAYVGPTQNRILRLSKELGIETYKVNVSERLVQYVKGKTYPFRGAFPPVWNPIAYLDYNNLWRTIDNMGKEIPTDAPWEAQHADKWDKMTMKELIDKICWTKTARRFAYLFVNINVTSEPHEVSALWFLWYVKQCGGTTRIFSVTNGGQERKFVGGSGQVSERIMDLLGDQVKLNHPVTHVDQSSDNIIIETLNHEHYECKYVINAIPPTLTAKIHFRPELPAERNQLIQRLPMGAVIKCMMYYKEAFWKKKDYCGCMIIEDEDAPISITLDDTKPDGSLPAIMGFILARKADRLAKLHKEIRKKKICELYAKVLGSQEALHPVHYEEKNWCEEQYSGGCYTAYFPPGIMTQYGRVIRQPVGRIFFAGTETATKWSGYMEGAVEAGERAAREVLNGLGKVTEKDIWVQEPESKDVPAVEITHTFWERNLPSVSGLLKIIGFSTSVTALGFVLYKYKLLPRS
The following applies: MAO-A versus MAO-B; cited from earlier work.

For the molecule `CCN(CC)C(=O)/C(C#N)=C/c1cc(O)c(O)c([N+](=O)[O-])c1` [entacapone, (E)-2-cyano-N,N-diethyl-3-(3,4-dihydroxy-5-nitrophenyl)propenamide], in the assay on male CD-1 mice, the “effect on length of time spent immobile / depression, in words” value is recorded as “did not significantly decrease” and the “length of time the mice spent immobile (average time immobile)” value (“length of time the mice spent immobile” below) turned out to be 129.9 s.
For `CN(C)CCC=C1c2ccccc2CCc2ccccc21` [amitriptyline] the same measures were “significant decrease” and 60.0 s.
Turning to `O=C(NCCN1CCOCC1)c1ccc(Cl)cc1` [moclobemide], the “selectivity for MAO-A than MAO-B” value on MAO-A is “approximately three times more selective for MAO-A than MAO-B”.
As for `CNCCC(Oc1ccc(C(F)(F)F)cc1)c1ccccc1` (centres unmarked) [fluoxetine], in the assay on male CD-1 mice, the “effect on length of time spent immobile / depression, in words” value was “did not significantly decrease; also recorded: failed to decrease depression” and the “length of time the mice spent immobile” value was determined as 158.2 s.
On to `CNCCCN1c2ccccc2CCc2ccccc21` [desipramine], for which, in the assay on male CD-1 mice, the “effect on length of time spent immobile / depression, in words” value was “did not significantly decrease; also recorded: failed to decrease depression” and the “length of time the mice spent immobile” value was determined as 136.4 s.
For `COc1ccc(C(CN(C)C)C2(O)CCCCC2)cc1` (centres unmarked) [venlafaxine] the same measures were “did not significantly decrease; also recorded: failed to decrease depression” and 117.5 s.
